For five compounds, IC50 results are on record in BindingDB's records for doi:10.1016/j.chembiol.2009.09.012 (University of California Irvine, 2009).

The test deals with T1, Monoglyceride lipase (Rattus norvegicus, UniProt Q8R431).
T1 sequence (Q8R431 whole entry): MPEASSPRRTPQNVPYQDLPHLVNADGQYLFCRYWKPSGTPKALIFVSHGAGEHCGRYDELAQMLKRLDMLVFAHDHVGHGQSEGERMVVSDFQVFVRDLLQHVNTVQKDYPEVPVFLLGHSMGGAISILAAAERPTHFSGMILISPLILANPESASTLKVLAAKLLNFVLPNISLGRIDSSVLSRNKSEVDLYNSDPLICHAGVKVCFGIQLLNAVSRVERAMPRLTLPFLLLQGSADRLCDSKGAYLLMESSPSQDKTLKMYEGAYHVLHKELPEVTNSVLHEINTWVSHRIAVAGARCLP
In words: Enzyme Assay. The note with it: 37 °C. The method, then:
Purified recombinant rat MGL was prepared and enzyme activity was assayed.

A word on the IC50: it is the point on the concentration scale where inhibition reaches its midpoint.

Compound `C=c1c(O)c(O)cc2c1=CC=C1[C@@]2(C)CC[C@@]2(C)[C@@H]3C[C@](C)(C(=O)O)CC[C@]3(C)CC[C@]12C` had an IC50 of 1.6 µM.

For `Cc1c(O)c(O)cc2c1CC=C1[C@@]2(C)CC[C@@]2(C)C3C[C@](C)(C(=O)O)CC[C@]3(C)CC[C@]12C` (stereo not given in full) [Dihydrocelastrol], the IC50 is 15 µM. This IC50 is about 9.4-fold higher than that of the compound before.

As to `CC(=O)Oc1cc2c(c(C)c1OC(C)=O)CC=C1[C@@]2(C)CC[C@@]2(C)[C@@H]3C[C@](C)(C(=O)O)CC[C@]3(C)CC[C@]12C` [Dihydrocelastryl diacetate], half-maximal inhibition (IC50) was put at 15 µM.

In the case of `C=c1c(O)c(O)cc2c1=CC=C1[C@@]2(C)CC[C@@]2(C)C3C[C@](C)(C(=O)OC)CC[C@]3(C)CC[C@]12C` (stereo not given in full) [Pristimerin], the IC50 is 0.093 µM.

Regarding `COC(=O)[C@]1(C)CC[C@]2(C)CC[C@]3(C)C4=CCc5c(cc(O)c(O)c5C)[C@]4(C)CC[C@@]3(C)C2C1` (stereo not given in full) [Pristimerol], the IC50 was found to be 4 µM.
